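Method: 48-hour compound exposure of cells in 96-well plates, five concentrations, linear interpolation of endpoints. At the GI50, growth is halved.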 Active and inactive are the calls of the source. No stated cut-off is given here; in the data, active = GI50 up to about 1.1 µM and inactive = higher.
Columns and labels:
Experiment in all cases: NCI anticancer screen, dose series, 48 h
SK-MEL-2 = tested on: SK-MEL-2
SNB-75 = tested on: SNB-75
UACC-257 = tested on: UACC-257
NCI/ADR-RES = tested on: NCI/ADR-RES
RPMI-8226 = tested on: RPMI-8226
COLO 205 = tested on: COLO 205
OVCAR-4 = tested on: OVCAR-4
HCT-15 = tested on: HCT-15
DU-145 = tested on: DU-145
MCF7 = tested on: MCF7
SF-268 = tested on: SF-268
MDA-MB-435 = tested on: MDA-MB-435
M14 = tested on: M14
PC-3 = tested on: PC-3
UO-31 = tested on: UO-31
A498 = tested on: A498
SK-MEL-28 = tested on: SK-MEL-28
HOP-92 = tested on: HOP-92
SK-OV-3 = tested on: SK-OV-3
SN12C = tested on: SN12C

Structure (SMILES)	GI50 (SK-MEL-2)	GI50 (SNB-75)	GI50 (UACC-257)	GI50 (NCI/ADR-RES)	GI50 (RPMI-8226)	GI50 (COLO 205)	GI50 (OVCAR-4)	GI50 (HCT-15)	GI50 (DU-145)	GI50 (MCF7)	GI50 (SF-268)	GI50 (MDA-MB-435)	GI50 (M14)	GI50 (PC-3)	GI50 (UO-31)	GI50 (A498)	GI50 (SK-MEL-28)	GI50 (HOP-92)	GI50 (SK-OV-3)	GI50 (SN12C)
CN(C)c1ncnc2c1ncn2CCn1cnc2c(N(C)C)ncnc21	> 100 µM (inactive)	> 100 µM (inactive)	> 100 µM (inactive)	> 100 µM (inactive)	> 100 µM (inactive)	> 100 µM (inactive)	> 100 µM (inactive)	> 100 µM	> 100 µM (inactive)	> 100 µM (inactive)	> 100 µM (inactive)	> 100 µM (inactive)	> 100 µM (inactive)	> 100 µM (inactive)	> 100 µM (inactive)	> 100 µM (inactive)	> 100 µM (inactive)	> 100 µM (inactive)	> 100 µM (inactive)	> 100 µM (inactive)
O=S(=O)(NNc1ccccc1)c1ccccc1	3.26 µM (inactive)	40 µM (inactive)	27.5 µM (inactive)	10 µM (inactive)	3.71 µM (inactive)	8.99 µM (inactive)	2.62 µM (inactive)	11.5 µM	13.2 µM (inactive)	14.9 µM (inactive)	38.5 µM (inactive)	4.81 µM (inactive)	0.671 µM (active)	8.15 µM (inactive)	10.6 µM (inactive)	81.5 µM (inactive)	48.2 µM (inactive)	19.1 µM (inactive)	65.3 µM (inactive)	4.49 µM (inactive)
CCCCCC1=C2C(c3ccc(OC)cc3)=C(N)C(c3ccc(OC)cc3)=C3NC(=O)C(C=C1)C32 (stereo not given)	> 100 µM (inactive)	32.8 µM (inactive)	> 100 µM (inactive)	> 100 µM (inactive)	33 µM (inactive)	32.1 µM (inactive)	23.2 µM (inactive)	> 100 µM	57.5 µM (inactive)	84.3 µM (inactive)	11.8 µM (inactive)	37.3 µM (inactive)	59.7 µM (inactive)	27.7 µM (inactive)	54.3 µM (inactive)	43 µM (inactive)	> 100 µM (inactive)	17.9 µM (inactive)	41.7 µM (inactive)	74.8 µM (inactive)
CC(=O)O[C@@H]1C(C2CCCCC2)C=[N+]([O-])O[C@@H]1OC1CCCC1(c1ccccc1)c1ccccc1 (stereo not given in full)	9.91 µM (inactive)	3.85 µM (inactive)	14.9 µM (inactive)	10.2 µM (inactive)	2.58 µM (inactive)	5.73 µM (inactive)	7.98 µM (inactive)	1.92 µM	10.9 µM (inactive)	3.18 µM (inactive)	7.4 µM (inactive)	3.06 µM (inactive)	5.31 µM (inactive)	9.59 µM (inactive)	8.09 µM (inactive)	7.41 µM (inactive)	2.32 µM (inactive)	10.1 µM (inactive)	15.7 µM (inactive)	9.23 µM (inactive)
CC(C)(C)CNCCO	> 100 µM (inactive)	> 100 µM (inactive)	> 100 µM (inactive)	> 100 µM (inactive)	> 100 µM (inactive)	> 100 µM (inactive)	> 100 µM (inactive)	> 100 µM	> 100 µM (inactive)	> 100 µM (inactive)	> 100 µM (inactive)	> 100 µM (inactive)	> 100 µM (inactive)	> 100 µM (inactive)	> 100 µM (inactive)	> 100 µM (inactive)	> 100 µM (inactive)	> 100 µM (inactive)	> 100 µM (inactive)	> 100 µM (inactive)
COc1ccccc1C1c2cc3c(cc2OC2(OC)COC(=O)C12)OCO3 (stereo not given)	7.43 µM (inactive)	7.16 µM (inactive)	19.7 µM (inactive)	6.55 µM (inactive)	8.07 µM (inactive)	6.56 µM (inactive)	19.1 µM (inactive)	5.33 µM	20.4 µM (inactive)	10.3 µM (inactive)	14.3 µM (inactive)	2.27 µM (inactive)	8.2 µM (inactive)	12 µM (inactive)	14.6 µM (inactive)	6.59 µM (inactive)	7.53 µM (inactive)	40.4 µM (inactive)	18.8 µM (inactive)	18.7 µM (inactive)
CCn1cc(C(=O)O)c(=O)c2cc(F)c(N3CCN(CN4C(=O)/C(=N\c5ncc(Cc6cc(OC)c(OC)c(OC)c6)c(N)n5)c5cc(Cl)ccc54)CC3)cc21	> 100 µM (inactive)	> 100 µM (inactive)	> 100 µM (inactive)	> 100 µM (inactive)	0.0399 µM (active)	> 100 µM (inactive)	> 100 µM (inactive)	91.6 µM	> 100 µM (inactive)	82 µM (inactive)	> 100 µM (inactive)	33.3 µM (inactive)	> 100 µM (inactive)	> 100 µM (inactive)	> 100 µM (inactive)	> 100 µM (inactive)	> 100 µM (inactive)	> 100 µM (inactive)	> 100 µM (inactive)	> 100 µM (inactive)

Reference: ChEMBL document CHEMBL1201862, “PubChem BioAssay data set” (2004)
